{"source": "patent US4939175A", "about": "“Use of N,N-dimethyl-1-[1-(4-chlorophenyl)cyclobutyl]-3-methylbutylamine” (priority 1988, dated 1990)", "key": {"[1]": {"system": "dopamine neuron, norepinephrine and serotonin neuron", "test": "Activation of dopamine, norepinephrine and serotonin neuron"}, "[2]": {"system": "spontaneous movement of mice", "test": "Spontaneous movement of mice", "parameters": "species or system SlC:ddy male mice", "details": "mouse, in vivo", "description": "Effect of the test samples on the sponteneous movement of mice\nThe test sample was administered orally to SlC:ddy male mice. Immediately after, the amount of movement activity of the test mice was measured for 16 hours, at the time of 1, 2, 4, 8 and 16 hours respectively after the oral administration, by means of spontaneous movement measuring system (displacement measuring type).\nMethamphetamine was used as the reference drug and distilled water was used as control sample.\nThe obtained results are shown in FIG. 1, columns and bars represent the mean±S.D. and statistical significance was evaluated by the multiple comparison test of Dunnet's type."}, "[3]": {"details": "Japanese Unexamined Patent Publication No. 181,043 (1982); cited from earlier work"}, "memory and learning": {"system": "memory and learning", "test": "Effect on memory and learning in preclinical studies", "assay_type": "in vivo"}}, "data": [{"smiles": "CC(C)CC(N(C)C)C1(c2ccc(Cl)cc2)CCC1", "note": "(centres unmarked) [N,N-dimethyl-1-[1-(4-chlorophenyl)cyclobutyl]-3-methylbutylamine]", "values": [{"measurement": "activation of dopamine neuron in addition to both norepinephrine and serotonin neuron", "setting": "[1]", "value": "intensive activation of dopamine neuron in addition to both norepinephrine and serotonin neuron"}, {"measurement": "effect on dopamine activity", "setting": "[1]", "value": "enhancing effect of dopamine activity"}, {"measurement": "spontaneous movement", "setting": "[2]", "value": "increase of spontaneous movement"}, {"measurement": "therapeutical effect as an antidepressant", "setting": "[3]", "value": "has a therapeutical effect as an antidepressant"}, {"measurement": "effect on memory and learning", "setting": "memory and learning", "value": "intensive effect on memory and learning"}]}]}
